In patent US12187733B1, “5-(Substitutedphenyl)-7-Imino-7,8-Dihydropyrimido[4,5-d]pyrimidine-2,4(1H,3H)-dione analogues as anti-inflammatory agents” (KING FAISAL UNIVERSITY, priority 2023, dated 2025) one finds IC50 data, which are given here for four compounds.

By IC50 is commonly meant the concentration needed to halve the response being measured. Read a high IC50 as weaker potency in that assay.

This test is described as follows: Anti-inflammatory activity. From the text: Anti-Inflammatory Activity
With `[H]/N=c1\nc(-c2ccc(OC)c(O)c2)c2c(=O)[nH]c(=O)[nH]c2[nH]1` [Compound 4c, 5-(3-Hydroxy-4-methoxyphenyl)-7-imino-7,8-dihydropyrimido[4,5-d]pyrimidine-2,4 (^1H,3H)-dione], the IC50 was found to be 0.218 µM.

For `[H]/N=c1\nc(-c2ccc(OCc3ccccc3)cc2)c2c(=O)[nH]c(=O)[nH]c2[nH]1` [Compound 4b, 5-(4-(Benzyloxy)phenyl)-7-imino-7,8-dihydropyrimido[4,5-d]pyrimidine-2,4 (^1H,3H)-dione], 0.0909 µM corresponded to half-maximal inhibition (IC50).

As for `[H]/N=c1\nc(-c2cccc(OCc3ccccc3)c2)c2c(=O)[nH]c(=O)[nH]c2[nH]1` [Compound 4a, 5-(3-(Benzyloxy)phenyl)-7-imino-7,8-dihydropyrimido[4,5-d]pyrimidine-2,4 (^1H,3H)-dione], the IC50 is 0.248 µM. Against the preceding compound, the IC50 is about 2.7-fold higher.

`[H]/N=c1\nc(-c2ccc(OC)c(O)c2)c2c(=O)n(C)c(=O)n(C)c2[nH]1` [Compound 4d, 5-(3-Hydroxy-4-methoxyphenyl)-7-imino-1,3-dimethyl-7,8-dihydropyrimido[4,5-d]pyrimid-ine-2,4 (^1H,3H)-dione]: the half-inhibitory concentration (IC50) came to 0.106 µM.
